What was measured:
SFFV [1] = assay: Treatment of 5-day-SFFV-infected mice, plasma SFFV RNA by real-time RT-PCR; assay type: in vivo
Excerpt: SFFV replicates to high titers in mice, whereby the spleen is a virus-shedding reservoir. The virus stock is recovered from spleen homogenates after full-blown disease, at about day 20 post infection (pi). The clarified supernatant contains around 2×10^5 focus forming units (FFU) per mil. Infection was normally performed by intravenous (iv) injection of 4×10^3 SFFV. After 5 days the blood was recovered (100 microliters) for detection of the viral RNA. The equivalent of 0.05 microliters was enough for RNA detection by 40 cycles. One FFU corresponds to about 6×10^4 RNA copies or 3×10^4 virus particles.
A number of experiments were carried out to evaluate the effect of ODNs on the SFFV mouse model. We treated 5-day-SFFV-infected mice (thick arrow) with ODN M (triangle) and measured the plasma RNA levels 4 hours after the in vivo therapy by real-time RT-PCR (FIG. 10a.1). In a second experiment we isolated the plasma of 5-day-SFFV-infected mice and treated it ex vivo with ODN M for 4 hours (FIG. 10a.2). In the third experiment we isolated uninfected plasma, incubated it ex vivo with ODN M for 2 hours followed by the addition of SFFV for 4 more hours (FIG. 10a.3). Finally we incubated ODN M and SFFV together in normal mouse plasma ex vivo for 4 hours (FIG. 10a.4).
To elucidate further the antiviral effect of ODN M in vivo we set up different therapeutic regimens. We infected mice with SFFV and then treated them 5 days later twice at an interval of two hours with either ODN M (1 mg), asPPT, ODN A as control, or PBS. The RNA was extracted 4, 8 and 16 hours later for PCR analysis (FIG. 10b.1). The viral RNA decreased approximately 6-fold in the plasma and started to slowly increase again 16 hours post-therapy.
In the next study, we used a single injection as treatment protocol and assessed the antiviral effect of both ODN M and asPPT in a short time-course. Plasma was taken from mice at 0.5, 1, 2, and 4 hours after the single treatment (FIG. 10b.2). A strong decrease of the number of SFFV RNA copies was detectable 4 hours after treatment. […] We conclude from FIG. 10b.2 that a single injection is sufficient to decrease the number of RNA copies by approximately 6-fold 4 hours after the beginning of the therapy.
In order to test, whether the SFFV titer increases again after ODN M-treatment, and whether it remains sensitive for ODN M, we treated 5-day-SFFV-infected mice at 3 days intervals with a double dose within 2 hours intervals. Plasma was taken before and 4 hours after treatment and assessed for viral RNA levels (FIG. 10b.3). ODN M exerted a strong antiviral effect with a reduction of RNA copies of 6-fold at day 0 compared with the control. At day 3, the effect is even stronger with 8-fold decrease of the SFFV RNA level.
To obtain a more continuous effect of ODN M and asPPT on SFFV replication we treated the SFFV-infected mice every 12 hours (FIG. 10b.4). […] The lack of response is in accordance with our previous in vitro studies on the sequence-specificity of the ODN A.
PCR was performed as indicated. 1. Mice infected with 200 μl containing 4×10^3 FFU SFFV for 5 days were treated i.v. with ODN M (1 mg corresponding to about 20 μM ODN M in the blood of a mouse) or PBS 4 hours post-treatment, plasma (100 μl) was recovered and analyzed by real time RT-PCR for SFFV RNA. 2. Plasma from a 5-day-SFFV-infected mouse was recovered and 100 μl were treated with ODN M (20 μM) for 4 hours at 37° C. ex vivo and then analyzed. 3. Plasma from a mock-infected mouse was treated with ODN M (20 μM) for 2 hours and then treated with 4×10^3 FFU in 20 μl for 4 hours. 4. Plasma from mock-infected mice was incubated with a combination of SFFV (4×10^3 FFU in 20 μl) and ODN M (20 μM) for 4 hours and then analyzed. The RNA levels were determined by real-time RT-PCR in the four experimental scenarios and are shown to the right.
b. Effect of ODN treatment following SFFV-infection in vivo. […]

SFFV [2] = assay: Prophylactic SFFV mouse model: virions pre-incubated with ODNs, injected i.p., then i.v. treatments; assay type: in vivo, mice
Protocol: Next we evaluated the prophylactic effect of ODN M on SFFV replication. For this we established 5 groups of 5 mice each. We pre-incubated SFFV with different ODNs or PBS for 2 hours and then injected the two together intraperitoneally at time 0. Then the mice were treated at 2, 4, and 24 hours post-infection by i.v. route. After 5 days, plasma from the mice was analyzed for viral RNA levels. […] A blood smear of the mice at day 64 post-infection was analyzed by Giemsa staining.
a. SFFV virions pre-treated with ODNs for 2 hours were injected i.p. into mice. Subsequent treatments were at 2, 4 and 24 h post infection. 5 groups of 5 mice each were used: negative control (1), infection with PBS (2), ODN M (3), or ODN A treatment (4) and mock-infection with ODN M treatment (5). Bleeding was performed five days post-infection for analysis of the viral RNA. The relative RNA levels standardized to group 2 of fully infected mice (bars) as well as RT-PCR products of the individual mice (gel analysis) are shown.

SFFV [3] = assay: NIH 3T3 cells infected with ODN-pretreated SFFV; assay type: cell-based; conditions: three days post-infection, real-time RT-PCR
Excerpt: As next step we investigated the antiviral effect of ODNs by testing pre-treated virions for residual infectivity as has been described before for HIV particles. SFFV particles were pretreated with ODN M or its variants and used to infect NIH 3T3 cells. After three days RNA was extracted from infected cells and from the supernatants and SFFV was quantified by real-time RT-PCR and analysis of amplification products (FIG. 9b).
b. NIH 3T3 cells were infected with SFFV pretreated with various ODNs. After three days the cells and supernatants were harvested and analyzed for SFFV RNA levels by quantitative real time RT-PCR (top) and RT-PCR (bottom) using GAPDH for comparison.

[4] = treated every 12 hours, up to 60 hours
[5] = SFFV pre-incubated 2 hours, i.p., i.v. treatments at 2, 4, 24 hours, day 5

Sequence	decrease of SFFV RNA levels (plateau) (SFFV [1]; [4])	viral infectivity in the body after pretreatment of the virus (SFFV [2]; pretreatment in a small test tube 1 to 4 hours, then infection of the mouse)	SFFV RNA in infected cells and supernatant (SFFV [3])	reduction of RNA copies compared with the control (SFFV [1]; double dose within 2 hours, day 0, 4 hours after treatment)	decrease of the SFFV RNA level (SFFV [1]; double dose within 2 hours, day 3)	antiviral effect compared with asPPT (SFFV [1]; single injection, 2 hours after beginning of therapy)	decrease of number of SFFV RNA copies (SFFV [1]; single injection, 4 hours after beginning of therapy)	decrease of viral RNA in the plasma (SFFV [1]; treated twice at an interval of two hours, 1 mg, RNA at 4, 8, 16 hours)	decrease of plasma RNA levels compared to PBS control mice (SFFV [2]; [5])	blood smear, Giemsa staining (SFFV [2]; day 64 post-infection)	effect on viral replication (SFFV [1]; double dose at 3 days intervals)	effect on decrease of the RNA level (SFFV [1]; [4])	reduction in RNA expression level (SFFV [2]; [5])
CCCTTCCAGTCCCCCCTTTTCTTTT (chemistry not given here) [asPPT, single-stranded antisense PPT of HIV, lacks the passenger strand and the linker]	~5 fold	completely abrogate viral infectivity	clearly less efficient										
TCTTTTTGGGGGGTTTGTTTGTTTTTTCTTTCATTCCCCCCTTTTTCT (chemistry not given here) [ODN M, 22-mer antisense and 22-mer second strand connected by T4, targeted to extended PPT of SFFV]	about 10 fold		suppressed viral replication	6 fold	8 fold	stronger than that of asPPT	approximately 6 fold	approximately 6 fold	5 fold	normal blood cell population			
TTTTCTTTTGGGGGGTTTGGTTGGGTTTTCCCTTCCAGTCCCCCCTTTTCTTTT (phosphorothioate linkages, further chemistry not given here) [ODN A, 25 mer antisense and 25 mer passenger strand connected by T4, phosphorothioated at each end and in linker, targeted to extended PPT of HIV-1]			clearly less efficient								no effect on viral replication	no significant effect	30%

From patent publication US20160281089A1, “PREVENTION OF VIRAL INFECTIVITY” (priority 2005, published 2016)
